Values after ≈ are worked out from the molar mass of the structure shown. Read-outs that look alike come from different tables or passages of the source.
Legend:
E. coli R477-100 = assay: Antibacterial activity, MIC by double-microdilution; type: cell-based; settings: Escherichia coli, R477100, read-out: Antibacterial Activity MIC E. Coli R 477/100
Method: (§1) Comparative antibacterial activities were determined in two representative strains of Gram-negative (E. coli R477-100) and Gram-positive (B. subtilis ATCC-6633) bacteria, by measuring the MIC values using the double-microdilution method according to the National Committee for Clinical Laboratory Standards (NCCLS) (NCCLS. National Committee for Clinical Laboratory Standards, Performance standards for antimicrobial susceptibility testing. Fifth information supplement: Approved Standard M100-S5; Villanova, Pa.: NCCLS, 1994.).
(§2) In all biological tests, all AGs were in their sulfate salt forms, and the concentrations refer to the free amine form of each AG. The eukaryotic and prokaryotic half-maximal-inhibition values (IC50^Euk and IC50^Pro) were quantified in coupled transcription/translation assays by using active luciferase detection as previously described. Minimal inhibitory concentration (MIC) values were determined by using the double-microdilution method.

B. subtilis ATCC-6633 = assay: as above; type: cell-based; settings: Bacillus subtilis
Method: as §1, §2

human fibroblast cells = settings: against human fibroblast cells; cited from earlier work
[1] = tested on: nonsense constructs R3X and R245X (USH1), Q70X (HS), G542X (CF); assay: Dual luciferase in vitro readthrough assay, p2Luc plasmids, TNT Reticulocyte Lysate; type: biochemical; settings: all mutations tested: R3X, R245X, Q70X, G542X; FIGS. 11A-D
Description: DNA fragments derived from PCDH15, CFTR, and IDUA cDNAs, including the tested nonsense mutation or the corresponding wild type (wt) codon, and four to six upstream and downstream flanking codons were created by annealing the following pairs of complementary oligonucleotides:
Fragments were inserted in frame into the polylinker of the p2Luc plasmid between either BamHI and SacI (p.R3X and p.R245X) or SalI and SacI (all the rest) restriction sites. For the in vitro readthrough assays, the obtained plasmids, with addition of the tested aminoglycosides were transcribed and translated using the TNT Reticulocyte Lysate Quick Coupled Transcription/Translation System. Luciferase activity was determined after 90 minutes of incubation at 30° C., using the Dual Luciferase Reporter Assay System (Promega™).
Activity was tested using a collection of dual-luciferase reporter plasmids, containing different sequence contests around premature stop codons derived from the PCDH15, CFTR, and IDUA genes that underline USH1, CF, and MPS I-H, respectively. The exemplified nonsense reporters were R3X and R245X for USH1, G542X for CF, and Q70X for MPS I-H.

[2] = tested on: stop codon mutations of Table 5; assay: Dual-luciferase readthrough of a broad arsenal of stop codon mutations; type: biochemical; settings: all tested mutations
Method: In these assays, the readthrough of a broad arsenal of stop codon mutations in the presence of NB156 and NB157 was tested. Briefly, NB156 and NB157 were tested at escalating doses for their read-through properties towards the nonsense mutation using the wild-type (WT) sequence of each specific complementary DNA (cDNA) as a control, and plasmids bearing the stop codon mutations in a dual-luciferase assay. DNA fragments derived from different cDNAs were prepared using either the WT or nonsense mutation, in which the sequences from the mutant or wild-type codon were surrounded by four to six upstream and downstream flanking codons. The cDNA sequence was inserted into the polylinker of the p2luc plasmid for each sequence.

[3] = tested on: prokaryotic ribosome (E. coli S30 extract); assay: Prokaryotic in vitro translation inhibition, coupled transcription/translation, E. coli S30 extract, pBESTluc; type: biochemical; settings: from IC50^Pro and MIC values of Tables 4 and 6
Method: (§3) Prokaryotic in vitro translation inhibition by the different aminoglycosides was quantified in coupled transcription/translation assays by using E. coli S30 extract for circular DNA with the pBESTluc plasmid (Promega), according to the manufacturer's protocol. Translation reactions (25 μL) that contained variable concentrations of the tested aminoglycoside were incubated at 37° C. for 60 minutes, cooled on ice for 5 minutes, and diluted with a dilution reagent (tris-phosphate buffer (25 mM, pH 7.8), DTT (2 mM), 1,2-diaminocyclohexanetetraacetate (2 mM), glycerol (10%), Triton X-100 (1%) and BSA (1 mg mL-1)) into 96-well plates. Eukaryotic in vitro translation inhibition was quantified by use of TNT® T7 Quick Coupled Transcription/Translation System with a luciferase T7 control DNA plasmid (Promega), according to the manufacturer protocol. Translation reactions (25 μL) containing variable concentrations of the tested aminoglycoside were incubated at 30° C. for 60 minutes, cooled on ice for 5 minutes, diluted with the dilution reagent and transferred into 96-well plates. In both prokaryotic and eukaryotic systems the luminescence was measured immediately after the addition of the Luciferase Assay Reagent (50 μL; Promega), and the light emission was recorded with a FLx800 Fluorescence Microplate Reader (Biotek). The half-maximal inhibition concentration (IC50) values were obtained from fitting concentration-response curves to the data of at least two independent experiments by using Grafit 5 software.
as §2

[4] = tested on: eukaryotic cytoplasmic ribosome; assay: Eukaryotic in vitro translation inhibition, TNT T7 Quick Coupled Transcription/Translation System, luciferase; type: biochemical; settings: NB156 vs NB74, NB157 vs NB124
Method: as §3, with “Translation reactions (25 μL) containing variable concentrations of the tested aminoglycoside were incubated at 30° C. for 60 minutes, cooled on ice for 5 minutes, diluted with the dilution reagent and transferred into 96-well plates.” left out, “The half-maximal inhibition concentration (IC50) values were obtained from fitting concentration-response curves to the data of at least two independent experiments by using Grafit 5 software.” left out
In all biological tests, all AGs were in their sulfate salt forms, and the concentrations refer to the free amine form of each AG. […] Minimal inhibitory concentration (MIC) values were determined by using the double-microdilution method.

Row | SMILES | MIC (E. coli R477-100) | MIC (B. subtilis ATCC-6633; ATCC6633, read-out: Antibacterial Activity MIC B. Subtilis ATCC6633) | LD50 (human fibroblast cells) | MIC (B. subtilis ATCC-6633; ATCC6633, Table 4, read-out: Antibacterial Activity MIC B. Subtilis ATCC6633) | readthrough activity compared with gentamicin [1] | readthrough activity compared with structurally related compound [1] | stop-codon mutation readthrough activity compared with NB74 [2] | prokaryotic ribosome/protein synthesis inhibition and subsequent antibacterial activity compared with structurally related compound [3] | fold more specific to the eukaryotic ribosome than structurally related compound [4]
1 | CN[C@@H]1[C@@H](O)[C@@H](O[C@@H]2[C@@H](O)[C@H](O[C@H]3O[C@H]([C@@H](C)O)[C@@H](O)[C@H](O)[C@H]3N)[C@@H](N)C[C@H]2N)OC[C@]1(C)O [Compound G418, geneticin, reference compound] | 9 µM (≈ 4.47 µg/mL) | < 1.25 µM | 0.04 mg/mL | – | – | – | – | – | –
2 | NC[C@H]1O[C@@H](O[C@@H]2[C@@H](O)[C@H](N)C[C@H](N)[C@H]2O[C@H]2O[C@H]([C@H](O)CO)[C@@H](O)[C@H](O)[C@H]2N)[C@@H](O)[C@H]1O [NB156, (2R, 3S, 4R, 5R, 6S)-5-amino-6-(((1R, 2R, 3S, 4R, 6S)-4,6-diamino-2-(((2S, 3S, 4R, 5R)-5-(aminomethyl)-3,4-dihydroxytetrahydrofuran-2-yl)oxy)-3-hydroxycyclohexyl)oxy)-2-((R)-1,2-dihydroxyethyl)tetrahydro-2H-pyran-3,4-diol] | > 273 µM | – | – | 34 µM (≈ 16.5 µg/mL) | significantly better than that of the clinical drug gentamicin | substantially better than that of the structurally related NB74 | more active than NB74 | very similar to those of their structurally related Compounds NB74 and NB124 | 1.85 fold

Reference: patent US10899785B2, “Aminoglycoside derivatives and uses thereof in treating genetic disorders” (Eloxx Pharmaceuticals Ltd., priority 2015, dated 2021)
